Here are results for 18 compounds from ChEMBL document CHEMBL1201862, “PubChem BioAssay data set” (2004).

One experiment concerns the target Cytochrome P450 3A4 (Homo sapiens, UniProt P08684).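 Also: CYP3A4 tested as one member of a cytochrome P450 panel screen.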
The next experiment deals with Streptococcus. Put plainly: Group A Streptococcus viability loss, dose response, counter-screen for streptokinase expression inhibitor project, luminescence, BacTiterGlo (AID 1915).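 Also: potency for reduction of bacterial viability or growth.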 The experiment is classed as functional, organism-based. Background: A counterscreen serves to expose hits that act by an unwanted route or on another target.
The test system of experiment [1] is Streptococcus sp. 'group A'. Nature of the experiment: growth inhibition of control SK(-) GAS strain, dose response, counter-screen for streptokinase expression inhibitor project, luminescence, kanamycin, BacTiterGlo, confirmation (AID 1900). The experiment is classed as functional, organism-based.
The next experiment deals with T1, Streptokinase A (Streptococcus pyogenes serotype M1, UniProt P10520).
T1 sequence (P10520 whole entry): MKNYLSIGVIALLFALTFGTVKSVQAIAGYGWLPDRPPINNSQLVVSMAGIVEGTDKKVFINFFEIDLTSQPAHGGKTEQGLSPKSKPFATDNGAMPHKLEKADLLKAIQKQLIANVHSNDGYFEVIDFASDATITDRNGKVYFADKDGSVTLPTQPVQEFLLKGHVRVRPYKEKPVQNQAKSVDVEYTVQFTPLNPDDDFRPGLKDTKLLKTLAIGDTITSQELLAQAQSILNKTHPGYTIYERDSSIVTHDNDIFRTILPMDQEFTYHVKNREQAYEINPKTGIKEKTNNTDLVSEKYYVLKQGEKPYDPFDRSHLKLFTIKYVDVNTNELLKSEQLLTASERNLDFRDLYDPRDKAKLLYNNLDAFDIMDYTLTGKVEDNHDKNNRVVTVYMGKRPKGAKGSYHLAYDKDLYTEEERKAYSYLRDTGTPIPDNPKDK
Put plainly: S. pyogenes streptokinase expression inhibitors, potency, dose response, plasminogen activation absorbance, OD405 (AID 1914).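 Also: secreted streptokinase activity via plasminogen activation per viability signal from cell pellet.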 It is filed as functional, Streptococcus pyogenes M1 GAS.

Experiment [2] can be described thus: inhibitors of SNCA 5'UTR-driven reporter translation, confirmation, H4 neuroglioma cells, luminescence (AID 1988). It is filed as functional, cell-based.
Experiment [3] is described as follows: inhibitors of firefly luciferase expression or activity, dose response, H4 neuroglioma cells, luminescence (AID 1990). The experiment is classed as functional, cell-based.
Experiment [4] is described as follows: Luminescence Cell-Based Dose Response HTS to Identify Inhibitors of 5'UTR Stem-Loop Driven Prion Protein mRNA Translation in H4 Neuroglioblastoma Cells. [Related pubchem assays: 1827 (Project Summary), 1813 (Primary HTS)]. The experiment is classed as functional.

Activity calls are given as the source filed them. Rule as the data show it, for most assays here: actives have a measured EC50 and inactives only a lower limit.

Cytochrome P450 3A4, sequence (P08684 whole entry): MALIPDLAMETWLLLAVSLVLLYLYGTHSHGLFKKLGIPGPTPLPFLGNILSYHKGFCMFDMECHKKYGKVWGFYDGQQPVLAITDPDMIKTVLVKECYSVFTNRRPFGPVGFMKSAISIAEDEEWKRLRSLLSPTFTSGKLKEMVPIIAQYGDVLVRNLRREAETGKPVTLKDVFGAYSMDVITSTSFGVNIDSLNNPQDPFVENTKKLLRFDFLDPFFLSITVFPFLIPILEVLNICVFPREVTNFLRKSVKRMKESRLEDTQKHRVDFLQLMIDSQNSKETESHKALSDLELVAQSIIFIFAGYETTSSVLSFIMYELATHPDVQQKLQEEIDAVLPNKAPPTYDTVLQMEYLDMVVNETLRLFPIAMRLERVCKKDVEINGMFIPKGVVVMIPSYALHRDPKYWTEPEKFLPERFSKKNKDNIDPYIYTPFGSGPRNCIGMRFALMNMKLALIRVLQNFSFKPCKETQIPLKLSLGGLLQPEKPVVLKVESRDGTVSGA

What is called AC50 is the midpoint of the concentration-response curve, whichever way the signal moves. For the compound `CCNc1ncc2nc(CCc3ccccc3)c(=O)n(C)c2n1`, the half-maximal activity concentration (AC50) at Cytochrome P450 3A4 is 31.6 µM (inconclusive).
Broadly, the EC50 is the concentration needed to bring the measured effect to its halfway point. Regarding `NNc1nc(Nc2ccccc2)nc(Nc2ccccc2)n1`, the EC50 in the experiment with Streptococcus is > 150 µM (not active); in experiment [1] it was 6.74 µM (active); at Streptokinase A, 23.5 µM (active).
On to `O=C(/C=C/c1ccccc1)NC(=S)NNC(=O)c1ccco1`, for which the EC50 is 11.2 µM (active) in the experiment on Streptococcus, 3.86 µM (active) in experiment [1] and > 150 µM (not active) at Streptokinase A.
Take `COc1ccc(NC(=O)CN2C(=O)COc3ccc(S(=O)(=O)N4CCCCCC4)cc32)cc1`: the EC50 in experiment [2], in experiment [3] and in experiment [4] was > 120 µM (not active) in each case.
Consider `Cc1ccc(C(=O)NC2CCN(S(=O)(=O)c3ccc(C)cc3)CC2)cc1`, for which the EC50 in experiment [2] is 45.4 µM (active); in experiment [3] it was > 120 µM (not active); in experiment [4], 4.43 µM (active).
For `COc1ccccc1NC(=O)Nc1nc(-c2cccnc2)nc2ccccc12`, at Cytochrome P450 3A4, the AC50 is 0.631 µM (inconclusive).
Regarding `Cc1nn(Cc2ccccc2Cl)c2sc(C(=O)Nc3ccccc3N3CCOCC3)cc12`, the EC50 was > 150 µM (not active) in the experiment with Streptococcus, 45.4 µM (active) in experiment [1] and > 150 µM (not active) on Streptokinase A.
Regarding `CC(=O)N1CCC2(CCCN(c3ccccc3)C2)CC1`, the AC50 at Cytochrome P450 3A4 was 20 µM (inconclusive).
Take `CCOC(=O)c1cccc(NC(=O)Nc2ccc(OCC)cc2)c1`: the EC50 was 9.81 µM (active) in experiment [2], 11.2 µM (inconclusive) in experiment [3] and 10.8 µM (active) in experiment [4].
`O=C(c1ccc(Cl)cc1)c1cnc(Nc2ccccc2Cl)s1`: the EC50 with Streptococcus is 30.5 µM (active); in experiment [1], 18.9 µM (active); at Streptokinase A, > 150 µM (not active).
Consider `CCCC/C(=N\CCc1c(C)[nH]c2ccc(OC)cc12)C1=C(O)CC(c2ccccc2)CC1=O` (stereo unspecified), for which the figures for the EC50 in experiment [2], in experiment [3] and in experiment [4] were 2.61 µM (active), 9.11 µM (active) and > 120 µM (not active), respectively.
In the case of `CC(=O)OC[C@H]1O[C@@H](O/N=C(\C)CCN2CCCc3nc(C)c(C)cc32)[C@H](OC(C)=O)[C@@H](OC(C)=O)[C@H]1OC(C)=O`, on Cytochrome P450 3A4, the AC50 was 3.98 µM (inconclusive).
For `COc1ccc(CCNC(=O)C(=O)Nc2ccc3nc4n(c(=O)c3c2)CCCCC4)cc1OC`, the EC50 with Streptococcus is > 150 µM (not active); in experiment [1], 11.3 µM (active); on Streptokinase A it was > 150 µM (not active).
Take `CCCn1c(NC(=O)c2ccccc2Br)nc2ccccc21`: the values for the EC50 (in the experiment with Streptococcus; in experiment [1]; at Streptokinase A) were 30.5 µM (active), 10.2 µM (active) and > 150 µM (not active), respectively.
`CCOc1ccccc1-c1nnc(SCC(=O)NC2CC3CCC2C3)n1CC` (stereo unspecified): the values for the EC50 in experiment [2], in experiment [3] and in experiment [4] were 16.7 µM (active), > 120 µM (not active) and > 120 µM (not active), respectively.
For the compound `CCn1c(SCc2cc(O)nc3ccccc23)nnc1C1CC1`, the concentration giving a half-maximal response (EC50) in experiment [2], in experiment [3] and in experiment [4] was > 120 µM (not active) throughout.
With `Cc1cc(NC(=O)CSc2nc3ccccc3[nH]2)n(-c2ccccc2)n1`, the half-maximal effective concentration (EC50) in experiment [2], in experiment [3] and in experiment [4] was > 120 µM (not active) throughout.
As for `S=C(c1ccc(-c2ccccc2)cc1)N1CCOCC1`, the EC50 was 9.91 µM (active) in experiment [2], 10.9 µM (active) in experiment [3] and 15.5 µM (active) in experiment [4].
